Several values for one entry are separate records, joined by “and”; a condition that tells them apart may be missing. Equal values may be shown once.
Legend:
[1] = Relative thermodynamic stability: cross-seeding, suspensions equilibrated, solid analysed by X-ray powder diffraction; assay type: physicochemical
Procedure: The relative thermodynamic stability of the anhydrous form poly-D in comparison with the known Forms A and B of the compound of formula (I) was assessed by cross-seeding experiments, where mixtures of the anhydrous form poly-D and Form A and mixtures of the anhydrous form poly-D and Form B were separately suspended in water, an organic solvent or mixtures of water and organic solvents. The suspension was then equilibrated at various temperatures for several days. The solid parts were then isolated by filtration and analysed by X-ray powder diffraction.

[2] = Saturation solubility, shake-flask with UV quantification; assay type: physicochemical; details: listed as The compound of formula (I), form poly-D, potassium salt
Procedure: The FaSSIF and FeSSIF solutions were prepared using Phares SIF powder according to the formulation instructions and the SGF solution was prepared using the guidelines provided. […] The pH and temperature of the supernatant were measured on a SiriusT3 instrument.

[3] = Wettability: contact angle measurement with water on pressed powder; assay type: physicochemical; details: potassium salt; for Contact angle: water, in ° (unit assumed)
Procedure: Contact angel instrument: EasyDrop DSA15E (Krüss, Hamburg, Germany)
Syringe: NE44, diameter of needle 0.5 mm (Krüss, Hamburg, Germany)
The powder was pressed (approx 50 mg powder, 3 tons, 2 min) in tablets and analyzed by contact angle measurement. The angel between the solid and the liquid is measured after 0 and up to 60 seconds using water.
All determinations used the above method and the limit for the standards measurements are well within the given limits.

[4] = Pharmacokinetic Study 1: FMI tablets fasted/fed versus reference IR capsule, crossover, healthy adult volunteers; assay type: in vivo, human; details: high fat meal versus fasted, FMI tablets
Procedure: This was an open label, randomized, four-period, incomplete crossover, single center study in healthy adult volunteers. There were 4 treatments in the study: 3 doses of the FMI (given fasting or fed following a high-fat breakfast) and one reference IR capsule (given fed after a typical breakfast). The term “FMI” refers to the dosage form of Example 7 (30 mg FMI) or Example 8 (75 mg FMI).
Each subject was randomized to 1 of 18 treatment sequences, each with 4 treatment periods (Table 27). The first treatment period consisted of 1 of the 3 doses of FMI given fed, and treatment periods 2 to 4 consisted of 1 dose of IR capsule (fed) and 2 of the 3 doses of the FMI given fasted. […] Each subject therefore had 2 fasting treatments with the FMI formulation, 1 fed treatment with the FMI formulation and a reference treatment (IR capsule). Seventy two subjects enrolled and were dosed in the study with 70 completers.
The study consisted of a 28-day screening period, four baseline periods (one before each treatment period), four treatment periods with a wash out period of a minimum of 5 days, followed by a study completion evaluation approximately 72 hours after the last drug administration. Subjects who met the eligibility criteria at screening were admitted to baseline evaluations. All baseline safety evaluation results were available prior to dosing.
For fasted administration, elinogrel was administered in the morning, following an overnight fast of at least 10 hours. Subjects continued to fast until 4 hours post-dose. For fed administration of FMI tablets, elinogrel was administered in the morning, within 30 minutes of a high fat breakfast (approximately 1000 calories). Subjects continued to fast until 4 hours post-dose. For fed administration of the reference (IR capsule), it was administered in the morning, within 30 minutes of a typical breakfast (approximately 500 calories). Subjects continued to fast until 4 hours post-dose.
Subjects were admitted to the study site approximately 12 hours prior to dosing in each period for baseline evaluations. Following a single dose of elinogrel, PK assessments were taken up to 48 hours post dose and safety assessments were made for up to 72 hours.
Subjects were domiciled for 24 hours post dosing for PK sample collection, at which time they were discharged from the study site. Subjects returned on the following 2 mornings for 48 hour PK and 72 hour safety samples. Following the 72 hour safety assessments of treatment period 4 (or in the case of subject discontinuation) subjects underwent study completion evaluations and were discharged from the study. […].
This was a three-period, four-treatment crossover study design with an add-on food effect period (Period 1).
Treatment 1 (T1)=elinogrel 30 mg FMI dose fasting
Treatment 2 (T2)=elinogrel 75 mg FMI dose fasting
Treatment 3 (T3)=elinogrel 150 mg FMI dose fasting
Reference (R)=elinogrel 150 mg IR capsule dose fed (typical breakfast); Example 6 (Reference)
Fed treatment 1 (F1)=elinogrel 30 mg FMI dose fed (high fat breakfast)
Fed treatment 2 (F2)=elinogrel 75 mg FMI dose fed (high fat breakfast)
Fed treatment 3 (F3)=elinogrel 150 mg FMI dose fed (high fat breakfast)
Subjects will received the following treatments in a randomized order: • Treatment (T1, F1) with IR (IR=immediate release) tablet of Example 7 containing pH-modifying alkalizing agent, 30 mg in fasted and fed state. • Treatment (T2, F2) with IR (IR=immediate release) tablet of Example 8 containing pH-modifying alkalizing agent, 75 mg in fasted and fed state • Treatment (R) with 2×IR (IR=immediate release) capsule of Example 6 (Reference): 2×75 mg (150 mg) in fed state. • Treatment (T3, F3) with 2×IR (IR=immediate release) tablet of Example 8 containing pH-modifying alkalizing agent, 2×75 mg (150 mg) in fasted and fed state.
To evaluate the food effect, the geometric mean ratio for PK parameters of the fed versus fasted for each dose level and its 90% CI was estimated as shown in Table 29 below.

[5] = Comparison of pharmacokinetic effects (AUC, bioavailability) in human studies for polymorphic form B, A and D; assay type: in vivo; details: 150 mg dose, polymorphs of the potassium salt, listed as polymorph D, potassium salt
Procedure: Comparison of pharmacokinetic effects in human studies for polymorphic form B, A and D of the potassium salt of elinogrel.
Therefore the polymorphic form does have a strong impact on the bioavailability of the drug.
The bioavailability is measured in a human study according to FDA guidelines for conducting bioavailability studies. The area under the curve (AUC) of elinogrel potassium salt polymorph.

[6] = cited from earlier work
[7] = Surface tension by Kibron Delta-8 tensiometer (microtensiometry); details: for Surface Active: 24.1 ° C.

CNc1cc2[nH]c(=O)n(-c3ccc(NC(=O)[N-]S(=O)(=O)c4ccc(Cl)s4)cc3)c(=O)c2cc1F.[K+] [Form poly-D]
solid form after equilibration (XRPD) ([1]; MeOH, 25° C./4 days): No change | solid form after equilibration (XRPD) ([1]; MeOH, 50° C./3 days): No change | solid form after equilibration (XRPD) ([1]; MeOH/water 1:1 v/v, 25° C./4 days): No change | solid form after equilibration (XRPD) ([1]; MeOH/water 1:1 v/v, 50° C./3 days): No change | solid form after equilibration (XRPD) ([1]; MeOH/water 1:2 v/v, 25° C./4 days): No change | solid form after equilibration (XRPD) ([1]; MeOH/water 1:2 v/v, 50° C./3 days): No change | solid form after equilibration (XRPD) ([1]; MeOH/water 2:1 v/v, 25° C./4 days): No change | solid form after equilibration (XRPD) ([1]; MeOH/water 2:1 v/v, 50° C./3 days): No change | solid form after equilibration (XRPD) ([1]; water, 25° C./4 days): No change | solid form after equilibration (XRPD) ([1]; water, 50° C./3 days): No change | Saturation solubility ([2]; FaSSIF pH 6.5-1w, mean N = 2): 0.1665 mg/mL | final pH measured of the supernatant ([2]; FaSSIF pH 6.5-1w): 7.00 | Saturation solubility ([2]; FeSSIF pH 5.0-1w, mean N = 2): 0.00694 mg/mL | final pH measured of the supernatant ([2]; FeSSIF pH 5.0-1w): 5.17 | Saturation solubility ([2]; Na Phosphate pH 6.8, mean N = 2): 0.09455 mg/mL | final pH measured of the supernatant ([2]; Na Phosphate pH 6.8): 7.08 | Saturation solubility ([2]; Na-Acetate pH 4.5, mean N = 2): 0.00086 mg/mL | final pH measured of the supernatant ([2]; Na-Acetate pH 4.5): 4.82 | Saturation solubility ([2]; SGF pH 2.1, mean N = 2): 0.0461 mg/mL | final pH measured of the supernatant ([2]; SGF pH 2.1): 6.34 | surface hydrophobilicity from contact angle ([3]; critical angle around 50° (>50° hydrophob <50° hydrophil), listed as polymorph poly-D): hydrophilic | Contact angle ([3]; 0 sec): 55.7 and 78.1 and 53.3 | Contact angle ([3]; 10 sec): 27.7 and 33.4 and 28.2 | Contact angle ([3]; 20 sec): 16.1 and 21.7 and 22.9 | Contact angle ([3]; 30 sec): 20.6 | Contact angle ([3]; 60 sec): 15.2 | food effect [4]: significant negative food effect | AUC (bioavailability) [5]: 35.227 µg·h/mL

Cc1ccnc(NS(=O)(=O)c2ccc(N)cc2)n1 [Sulfamerazine]
LogP [6]: 0.15 | pKa(s) A = acid [6]: 6.81 | pKa(s) B = Base [6]: 2.22

O=C(O)c1cc(/N=N/c2ccc(S(=O)(=O)Nc3ccccn3)cc2)ccc1O [Sulfasalazine]
LogP [6]: 3.61

Nc1ccc(S(=O)(=O)Nc2nccs2)cc1 [Sulfathiazole]
LogP [6]: 0.07 | pKa(s) A = acid [6]: 7.168 | pKa(s) B = Base [6]: B 2.124 A

CC(C)(C)c1ccc(C(O)CCCN2CCC(C(O)(c3ccccc3)c3ccccc3)CC2)cc1 (centres unmarked) [Terfenadine]
LogP [6]: 5.42 | pKa(s) B = Base [6]: B 9.25

NS(=O)(=O)c1cc2c(cc1Cl)NC(C(Cl)Cl)NS2(=O)=O (centres unmarked) [Trichlormethiazide]
LogP [6]: 0.97

CNc1cc2[nH]c(=O)n(-c3ccc(NC(=O)[N-]S(=O)(=O)c4ccc(Cl)s4)cc3)c(=O)c2cc1F.[K+] [potassium salt of formula (I)]
CMC ([7]; pH 6.0 phosphate buffer): 0.1 mg/mL | Surface tension at CMC ([7]; pH 6.0 phosphate buffer): 62 mN/m | maximum surface pressure change ([7]; pH6 phosphate buffer): 11 mN/m | CMC ([7]; pH 6.5 phosphate buffer): >1.7 mg/mL | Surface tension at CMC ([7]; pH 6.5 phosphate buffer): 68 mN/m | Surface Active ([7]; pH 6.5 phosphate buffer): Yes | CMC ([7]; pH 7.0 phosphate buffer): >2.7 mg/mL | Surface tension at CMC ([7]; pH 7.0 phosphate buffer): 65 mN/m | Surface Active ([7]; pH 7.0 phosphate buffer): Yes | CMC ([7]; pH 7.5 phosphate buffer): >4.0 mg/mL | Surface tension at CMC ([7]; pH 7.5 phosphate buffer): 63 mN/m | Surface Active ([7]; pH 7.5 phosphate buffer): Yes | CMC ([7]; pH 8.0 phosphate buffer): >3.5 mg/mL | Surface tension at CMC ([7]; pH 8.0 phosphate buffer): 63 mN/m | Surface Active ([7]; pH 8.0 phosphate buffer): Yes

Reference: patent US8987285B2, “Pharmaceutical compositions, dosage forms and new forms of the compound of formula (I), and methods of use thereof” (Portola Pharmaceuticals, Inc., priority 2010, dated 2015)
